Measured values: ChEMBL document CHEMBL1141745, “New Sesquiterpene Lactones from Illicium floridanum” (J Nat Prod, 1998)

Assay: Neurotoxicity against ip dosed mouse
Format: toxicity, organism-based
Settings: in vivo

With C[C@@H]1C[C@@H](O)[C@@]2(O)[C@@]13C[C@@H](OC(=O)[C@H]3O)[C@](C)(O)[C@@]21COC1=O [ANISATIN] the LD50 was 1 mg/kg.
